{"source": "ChEMBL document CHEMBL4665709", "about": "“Rational Avoidance of Protease Cleavage Sites and Symmetrical End-Tagging Significantly Enhances the Stability and Therapeutic Potential of Antimicrobial Peptides” (J Med Chem, 2020)", "key": {"[1]": {"experiment": "Therapeutic index, ratio of MHC for human RBC to geometric mean of peptide MIC for Escherichia coli ATCC 25922", "type": "toxicity", "conditions": "human red blood cells (RBC), read-out: TI"}, "[2]": {"test_system": "Escherichia coli", "experiment": "Antibacterial activity against Escherichia coli ATCC 25922 infected in C57BL/6 mouse assessed as reduction in bacterial load in liver at 10 mg/kg, ip measured after 11 hrs (reference value: 7.12 log CFU/g)", "type": "functional"}, "[3]": {"test_system": "Cell membrane", "experiment": "Induction of morpholoical changes in membrane of Escherichia coli ATCC 25922 assessed as corrugation in bacterial membrane at 1 times MIC after 1 hr by scanning electron microscopy"}, "[4]": {"test_system": "Escherichia coli", "experiment": "Antibacterial activity against Escherichia coli ATCC 25922 measured after 18 to 24 hrs in presence of proteinase K by CLSI-based broth microdilution method", "type": "functional, organism-based", "conditions": "time hrs 18-24"}, "[5]": {"experiment": "Stability of compound assessed as pepsin (unknown origin)-mediated drug degradation after 8 hrs by RP-HPLC analysis", "type": "ADME", "conditions": "human"}, "[6]": {"test_system": "Staphylococcus aureus", "experiment": "Antibacterial activity against Staphylococcus aureus ATCC 29213 after 18 to 24 hrs in presence of 150 mM Na+ by CLSI-based broth microdilution method", "type": "functional", "conditions": "time hrs 18-24"}, "[7]": {"test_system": "Escherichia coli", "experiment": "Antibacterial activity against Escherichia coli ATCC 25922 infected in C57BL/6 mouse assessed as reduction in lesion in lung at 10 mg/kg, ip measured after 11 hrs by hematoxylin and eosin staining based assay", "type": "functional, organism-based"}, "[8]": {"experiment": "Therapeutic index, ratio of MHC for human RBC to geometric mean of peptide MIC for methicillin-resistant Staphylococcus aureus 43300", "type": "toxicity", "conditions": "human red blood cells (RBC), read-out: TI"}, "[9]": {"test_system": "Escherichia coli", "experiment": "Antibacterial activity against Escherichia coli ATCC 25922 infected in C57BL/6 mouse assessed as reduction in bleeding in kidney at 10 mg/kg, ip measured after 11 hrs by hematoxylin and eosin staining based assay", "type": "functional, organism-based"}, "[10]": {"test_system": "Staphylococcus aureus", "experiment": "Antibacterial activity against Staphylococcus aureus 29213 with 0.0625-2 mg/mL proteinase K for 1 hr followed by test compound addition measured after 4 to 8 hrs by CLSI-based broth microdilution method", "type": "functional, organism-based", "conditions": "time hrs 4-8"}, "[11]": {"experiment": "Stability of compound assessed as proteinase K (unknown origin)-mediated drug degradation after 8 hrs by SDS-PAGE analysis", "type": "ADME", "conditions": "human"}, "[12]": {"test_system": "Cell membrane", "experiment": "Induction of structural changes in membrane of Staphylococcus aureus ATCC 29213 assessed as cytoplasmic leakage at 1 times MIC after 1 hr by transmission electron microscopy"}, "[13]": {"test_system": "Cell membrane", "experiment": "Induction of structural changes in membrane of Escherichia coli ATCC 25922 assessed as cytoplasmic membrane separation at 1 times MIC after 1 hr by transmission electron microscopy", "type": "subcellular"}, "[14]": {"test_system": "Staphylococcus aureus", "experiment": "Antibacterial activity against Staphylococcus aureus ATCC 29213 after 18 to 24 hrs by CLSI-based broth microdilution method", "type": "functional", "conditions": "time hrs 18-24"}, "[15]": {"test_system": "Cell membrane", "experiment": "Disruption of membrane integrity in Escherichia coli ATCC 25922 assessed as induction of membrane rupture at 0.5 to 2 times MIC after 1 hr by SYTO-9/PI-staining based fluorescence microscopy"}, "[16]": {"experiment": "Toxicity in C57BL/6 mouse assessed as effect on creatinine level at 20 mg/kg, ip measured after 5 days", "type": "organism-based", "conditions": "in vivo, 120 h, time 5 day"}, "[17]": {"test_system": "Staphylococcus aureus", "experiment": "Antibacterial activity against Staphylococcus aureus ATCC 29213 after 18 to 24 hrs in presence of 6 uM Fe3+ by CLSI-based broth microdilution method", "type": "functional", "conditions": "time hrs 18-24"}, "[18]": {"experiment": "Therapeutic index, ratio of MHC for human RBC to geometric mean of peptide MIC for Salmonella pullorum 7913", "type": "toxicity", "conditions": "human red blood cells (RBC), read-out: TI"}, "[19]": {"test_system": "Escherichia coli", "experiment": "Antibacterial activity against Escherichia coli ATCC 25922 infected in C57BL/6 mouse assessed as reduction in inflammatory cell infiltration in lung at 10 mg/kg, ip measured after 11 hrs by hematoxylin and eosin staining based assay", "type": "functional, organism-based"}, "[20]": {"target": "Trypsin (Homo sapiens, UniProt P07477+P07478+P35030)", "experiment": "Stability of compound assessed as trypsin (unknown origin)-mediated drug degradation after 8 hrs by RP-HPLC analysis", "type": "ADME, protein assay"}, "[21]": {"experiment": "Toxicity in C57BL/6 mouse assessed as change in body weigh at 20 mg/kg, ip measured for 5 days", "type": "organism-based", "conditions": "in vivo, 120 h, time 5 day"}, "[22]": {"test_system": "Cell membrane", "experiment": "Disruption of membrane integrity in Staphylococcus aureus ATCC 29213 assessed as induction of membrane rupture at 2 times MIC after 1 hr by PI-staining based flow cytometry analysis"}, "[23]": {"experiment": "Stability of compound at 100 degreeC after 30 to 90 mins", "type": "physicochemical", "conditions": "time 30-90 min"}, "[24]": {"test_system": "Cell membrane", "experiment": "Disruption of membrane integrity in Escherichia coli ATCC 25922 assessed as induction of membrane rupture after 1 hr by PI-staining based flow cytometry analysis", "type": "subcellular"}, "[25]": {"experiment": "Therapeutic index, ratio of MHC for human RBC to geometric mean of peptide MIC for Salmonella typhimurium 14028", "type": "toxicity", "conditions": "human red blood cells (RBC), read-out: TI"}, "[26]": {"experiment": "Stability of compound assessed as proteinase K (unknown origin)-mediated drug degradation after 8 hrs by RP-HPLC analysis", "type": "ADME", "conditions": "human"}, "[27]": {"test_system": "Escherichia coli", "experiment": "Antibacterial activity against Escherichia coli ATCC 25922 after 18 to 24 hrs by CLSI-based broth microdilution method", "type": "functional", "conditions": "time hrs 18-24"}, "[28]": {"test_system": "Escherichia coli", "experiment": "Antibacterial activity against Escherichia coli ATCC 25922 infected in C57BL/6 mouse assessed as reduction in lesion in liver at 10 mg/kg, ip measured after 11 hrs by hematoxylin and eosin staining based assay", "type": "functional, organism-based"}, "[29]": {"test_system": "Staphylococcus aureus", "experiment": "Antibacterial activity against Staphylococcus aureus 11011 after 18 to 24 hrs by CLSI-based broth microdilution method", "type": "functional", "conditions": "time hrs 18-24"}, "[30]": {"experiment": "Therapeutic index, ratio of MHC for human RBC to geometric mean of peptide MIC for Salmonella choleraesuis 503", "type": "toxicity", "conditions": "human red blood cells (RBC), read-out: TI"}, "[31]": {"test_system": "Cell membrane", "experiment": "Induction of structural changes in membrane of Escherichia coli ATCC 25922 assessed as membrane rupture at 1 times MIC after 1 hr by transmission electron microscopy", "type": "subcellular"}, "[32]": {"experiment": "Toxicity in C57BL/6 mouse assessed as effect on creatinine level at 10 mg/kg, ip measured after 5 days", "type": "organism-based", "conditions": "in vivo, 120 h, time 5 day"}, "[33]": {"test_system": "Staphylococcus aureus", "experiment": "Antibacterial activity against Staphylococcus aureus ATCC 29213 after 18 to 24 hrs in presence of 1 mM Mg2+ by CLSI-based broth microdilution method", "type": "functional", "conditions": "time hrs 18-24"}, "[34]": {"experiment": "Stability of compound assessed as pepsin (unknown origin)-mediated drug degradation after 8 hrs by SDS-PAGE analysis", "type": "ADME", "conditions": "human"}, "[35]": {"test_system": "Cell membrane", "experiment": "Induction of morpholoical changes in membrane of Staphylococcus aureus ATCC 29213 assessed as corrugation in bacterial membrane at 1 times MIC after 1 hr by scanning electron microscopy", "type": "subcellular"}, "[36]": {"test_system": "Escherichia coli", "experiment": "Antibacterial activity against Escherichia coli ATCC 25922 infected in C57BL/6 mouse assessed as reduction in lesion in kidney at 10 mg/kg, ip measured after 11 hrs by hematoxylin and eosin staining based assay", "type": "functional, organism-based"}, "[37]": {"test_system": "Escherichia coli", "experiment": "Antibacterial activity against Escherichia coli ATCC 25922 infected in C57BL/6 mouse assessed as reduction in bleeding in spleen at 10 mg/kg, ip measured after 11 hrs by hematoxylin and eosin staining based assay", "type": "functional, organism-based"}, "[38]": {"test_system": "Cell membrane", "experiment": "Induction of morpholoical changes in membrane of Escherichia coli ATCC 25922 assessed as fragmentation in bacterial membrane at 1 times MIC after 1 hr by scanning electron microscopy", "type": "subcellular"}}, "note": "Activity calls are given as the source filed them. The calls are words filed in the database; no cut-off is given here. Where a SMILES comes first, the peptide text is derived from it."}
{"smiles": "CC[C@H](C)[C@H](N)C(=O)N[C@H](C(=O)N[C@H](C(=O)N[C@@H](CS)C(=O)N[C@@H](CCCNC(=N)N)C(=O)N[C@@H](CCCCN)C(=O)N1CCC[C@H]1C(=O)N[C@H](C(=O)N[C@H](C(=O)N[C@@H](CS)C(=O)N[C@@H](CCCNC(=N)N)C(=O)N[C@@H](CCCCN)C(=O)N1CCC[C@H]1C(=O)N[C@H](C(=O)N[C@H](C(=O)N[C@@H](CS)C(=O)N[C@@H](CCCNC(=N)N)C(=O)N[C@@H](CCCCN)C(=O)N1CCC[C@H]1C(=O)N[C@H](C(=O)N[C@H](C(=O)N[C@@H](CS)C(=O)N[C@@H](CCCNC(=N)N)C(=O)N[C@@H](CCCCN)C(=O)N1CCC[C@H]1C(=O)N[C@H](C(=O)N[C@H](C(=O)N[C@H](C(N)=O)[C@@H](C)CC)[C@@H](C)CC)[C@@H](C)CC)[C@@H](C)CC)[C@@H](C)CC)[C@@H](C)CC)[C@@H](C)CC)[C@@H](C)CC)[C@@H](C)CC)[C@@H](C)CC)[C@@H](C)CC", "note": "(H-IIICRKPIICRKPIICRKPIICRKPIII-NH2)", "values": [{"measurement": "selectivity ratio", "setting": "[1]", "result": 57}, {"measurement": "Activity", "setting": "[2]", "result": 5.08, "unit": "log10CFU/g"}, {"measurement": "Activity", "setting": "[3]", "result": "Active"}, {"measurement": "Activity", "setting": "[4]", "result": "Active"}, {"measurement": "Stabilty", "setting": "[5]", "result": "Stable"}, {"measurement": "MIC", "setting": "[6]", "result": 16, "unit": "µM"}, {"measurement": "Activity", "setting": "[7]", "result": "Active"}, {"measurement": "selectivity ratio", "setting": "[8]", "result": 28.5}, {"measurement": "Activity", "setting": "[9]", "result": "Active"}, {"measurement": "Activity", "setting": "[10]", "result": "Active"}, {"measurement": "Stabilty", "setting": "[11]", "result": "Stable"}, {"measurement": "Activity", "setting": "[12]", "result": "Active"}, {"measurement": "Activity", "setting": "[13]", "result": "Active"}, {"measurement": "MIC", "setting": "[14]", "result": 8, "unit": "µM"}, {"measurement": "Activity", "setting": "[15]", "result": "Active"}, {"measurement": "Activity", "setting": "[16]", "result": "Non-Toxic"}, {"measurement": "MIC", "setting": "[17]", "result": 8, "unit": "µM"}, {"measurement": "selectivity ratio", "setting": "[18]", "result": 57}, {"measurement": "Activity", "setting": "[19]", "result": "Active"}, {"measurement": "Stabilty", "setting": "[20]", "result": "Stable"}, {"measurement": "Activity", "setting": "[21]", "result": "Non-Toxic"}, {"measurement": "Activity", "setting": "[22]", "result": "> 90", "unit": "%"}, {"measurement": "Stabilty", "setting": "[23]", "result": "Stable"}, {"measurement": "Activity", "setting": "[24]", "result": "Dose-dependent effect"}, {"measurement": "selectivity ratio", "setting": "[25]", "result": 57}, {"measurement": "Stabilty", "setting": "[26]", "result": "Stable"}, {"measurement": "MIC", "setting": "[27]", "result": 2, "unit": "µM"}, {"measurement": "Activity", "setting": "[28]", "result": "Active"}, {"measurement": "MIC", "setting": "[29]", "result": 4, "unit": "µM"}, {"measurement": "selectivity ratio", "setting": "[30]", "result": 57}, {"measurement": "Activity", "setting": "[31]", "result": "Active"}, {"measurement": "Activity", "setting": "[32]", "result": "Non-Toxic"}, {"measurement": "MIC", "setting": "[33]", "result": 16, "unit": "µM"}, {"measurement": "Stabilty", "setting": "[34]", "result": "Stable"}, {"measurement": "Activity", "setting": "[35]", "result": "Active"}, {"measurement": "Activity", "setting": "[36]", "result": "Active"}, {"measurement": "Activity", "setting": "[37]", "result": "Active"}, {"measurement": "Activity", "setting": "[38]", "result": "Active"}]}
